In PubChem BioAssay (NCI) one finds GI50 and TGI data, which are given here for 28 compounds.

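Dose response: 5 concentrations. Exposure: 48 h. Format: 96-well plates. Endpoint: linear interpolation; highest concentration if not reached. GI50 = concentration required for 50% inhibition of growth. TGI denotes the concentration required for complete inhibition of growth.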

Assay in all cases: NCI tumour cell line growth inhibition, 48 h
Experiment [1] deals with OVCAR-4 ovarian.
The subject of experiment [2] is OVCAR-8 ovarian.
Experiment [3] concerns U251 CNS.
Experiment [4] deals with MCF7 breast.
The test system of experiment [5] is SN12C renal.
For experiment [6], the system named is SK-MEL-28 melanoma.
The test system of experiment [7] is SNB-19 CNS.
Experiment [8] concerns SF-539 CNS.
For experiment [9], the system named is HCT-15 colon.
Experiment [10] deals with UACC-62 melanoma.

On to `CCOC(=O)C1=C(c2ccccc2)N(c2ccc(OC)cc2)[C@]2(C#N)C(O)=C(Cl)C(Cl)=C(O)[C@]12C#N`, for which the GI50 in experiment [1] is 46.3 µM; in experiment [2], 33 µM; in experiment [3], 22.5 µM; in experiment [4], 18.7 µM; in experiment [5] it was 18.8 µM; in experiment [6], 21.3 µM. For the same compound, the values for the GI50 in experiment [7], in experiment [8] and in experiment [9] were 20.5 µM, 24.5 µM and 19.2 µM, respectively. Besides, the TGI in [1] was above 100 µM; in experiment [2], above 100 µM; in experiment [3], 52.5 µM; in [4] it was 36.1 µM; in [5], 36.3 µM; in experiment [6], 41.9 µM. Besides, the TGI in experiment [7] was 42.1 µM; in experiment [8] it was 56.3 µM; in experiment [9] it was 40.8 µM.

For the compound `CC1=CC2CC(C)C1(C)CCc1ccoc12` (centres undefined), the TGI in experiment [1], in experiment [2], in [3], in experiment [5], in experiment [6] and in [7] was above 100 µM each time. The TGI in experiment [10], in experiment [8] and in [9] was above 100 µM in each case.

For the compound `Cc1cc2c(cc1Br)C1(C)CCC(C)C1(C)O2` (centres undefined), the TGI was above 100 µM in [1]; above 100 µM in [2]; 50.5 µM in [3]; 80.9 µM in [5]; above 100 µM in experiment [6]; above 100 µM in experiment [7]. The TGI in [10], in [8] and in [9] was above 100 µM throughout.

Consider `COc1cc2c(c(OC)c1OC)-c1ccc(SC)c(=O)cc1C(CC(=O)Oc1cccc(C#N)c1)C2` (centres undefined), for which the TGI in experiment [1] was above 100 µM; in experiment [2], 6.88 µM; in [5] it was above 77.7 µM; in experiment [6], above 100 µM; in experiment [7], above 100 µM; in experiment [10], 5.32 µM. Moreover, the TGI in [8] turned out to be 0.602 µM; in experiment [9], 6.47 µM.

As for `CC(=O)O[C@H]1CC[C@@]2(C)C(=CC[C@@H]3C2CC[C@]2(C)Nc4[nH]ncc4CC32)C1` (some centres undefined), the TGI in [1] is 37.2 µM; in [2] it was above 100 µM; in experiment [3], 30.7 µM; in experiment [6], above 100 µM; in [10], 57.1 µM; in experiment [8], 40.4 µM. Besides, the TGI in experiment [9] is 32.8 µM.

Turning to `CO/N=C(/COc1c(-c2ccccc2)oc2ccccc2c1=O)c1ccc(F)cc1`, the GI50 in [1] is 25.9 µM; in experiment [2] it was 53 µM; in experiment [3], 33.9 µM; in experiment [5] it was 35.1 µM; in experiment [6], above 100 µM; in [10], 96.1 µM. In addition, the figures for the GI50 in experiment [8] and in [9] were 85.6 µM and above 100 µM, respectively. Besides, the TGI in [1] was 71.4 µM; in [2], above 100 µM; in experiment [3], above 100 µM; in experiment [5], above 100 µM; in experiment [6] it was above 100 µM; in experiment [10] it was above 100 µM. Further, the TGI in experiment [8] and in [9] was above 100 µM throughout.

As to `CCC[CH2][Sn]1([CH2]CCC)[O]C(=O)CN=Cc2ccccc2[O]1`, the GI50 was 0.881 µM in experiment [1]; 0.346 µM in experiment [2]; 0.305 µM in experiment [3]; 0.292 µM in experiment [5]; 0.343 µM in experiment [6]; 0.222 µM in experiment [7]. Besides, the results for the GI50 in experiment [10], in experiment [8] and in experiment [9] were 0.197 µM, 1.3 µM and 0.358 µM, respectively. For the same compound, the TGI in [1] amounted to 2.32 µM; in [2], 1.39 µM; in [3], 1.09 µM; in experiment [5], 1.13 µM; in experiment [6], 1.1 µM; in experiment [7], 0.556 µM. For the same compound, the TGI was 0.46 µM in experiment [10], above 100 µM in [8] and 1.56 µM in experiment [9].

In the case of `CN(CCN(C)C(=O)CCOS(C)(=O)=O)C(=O)CCOS(C)(=O)=O`, the TGI in experiment [1], in experiment [2], in experiment [3], in [5], in experiment [6] and in [7] was above 100 µM each time. Moreover, the TGI in [10], in [8] and in [9] was above 100 µM in each case.

Take `Cc1c(O)c(=O)ccn1CCO`: the TGI in [1], in experiment [2], in experiment [3], in experiment [5], in experiment [6] and in experiment [7] was above 100 µM each time. Besides, the TGI in experiment [10] and in [9] was above 100 µM each time.

In the case of `COc1ccc(C(O)/C(=C/n2ccnc2)c2ccccc2)cc1OC` (centres undefined), the TGI in [1], in [2], in experiment [3], in experiment [5], in experiment [6] and in experiment [7] was above 100 µM in each case. The TGI in [10], in [8] and in experiment [9] was above 100 µM each time.

As to `Clc1cc(Cl)cc(Nc2nc3ccccc3nc2-c2cccs2)c1`, the TGI in [2] was 27 µM; in experiment [5], above 100 µM; in [8] it was above 100 µM; in experiment [9], above 100 µM.

For `C=CCN(CC=C)CC(C(C)=O)C(c1ccccc1)c1c(O)c2ccccc2oc1=O` (centres undefined), the TGI in experiment [1], in experiment [2], in [3], in experiment [5], in experiment [6] and in experiment [7] was above 100 µM throughout. Besides, the TGI in [10], in experiment [8] and in experiment [9] was above 100 µM throughout.

On to `C[Si]12OCCCN(CCO1)CCO2`, for which the TGI in experiment [2], in [3], in experiment [5], in [6], in experiment [7] and in [10] was above 100 µM each time. The same compound gave a TGI in experiment [8] above 100 µM.

For the compound `COc1ccccc1NC(=O)C1=C(C)NC(C)=C(C(=O)Nc2ccccc2OC)C1c1cccc2c1OCO2`, the TGI in experiment [1], in [2], in experiment [3], in experiment [5], in [6] and in [7] was above 100 µM in each case. Also, the TGI in [10], in experiment [8] and in experiment [9] was above 100 µM in each case.

For the compound `O=CN1CCN(C=S)CC1`, the TGI in experiment [1], in [2], in experiment [3], in [5], in experiment [6] and in [7] was above 100 µM throughout. Besides, the TGI in experiment [10], in experiment [8] and in experiment [9] was above 100 µM throughout.

Take `CNC(=O)OCc1[nH]ccc2c(C)c3nc4ccc(OC)cc4c3cc12`: the TGI in experiment [1] was 66.1 µM; in [2], above 24.9 µM; in experiment [3], above 59.5 µM; in [5] it was above 100 µM; in experiment [6], above 81 µM; in experiment [7], above 25.1 µM. The TGI is above 56.7 µM in experiment [10], above 31.8 µM in [8] and above 21.9 µM in experiment [9].

As for `COc1ccccc1NC(=O)CC(=O)NNCC(=O)Nc1nnc(-c2ccccc2)o1`, the TGI in [1], in experiment [2], in experiment [3], in experiment [5], in experiment [6] and in [7] was above 100 µM each time. In addition, the TGI in experiment [10], in experiment [8] and in experiment [9] was above 100 µM each time.

On to `CCOC(=O)c1cnc2cc3cccccc3n2c1=O`, for which the TGI in experiment [1], in experiment [2], in [3], in [5], in [6] and in experiment [7] was above 100 µM each time. The TGI in experiment [10], in [8] and in experiment [9] was above 100 µM throughout.

For the compound `O=C(O)CCCNS(=O)(=O)c1ccc2ccccc2c1`, the TGI in experiment [1], in experiment [2], in [3], in [5], in experiment [6] and in experiment [7] was above 100 µM throughout. Besides, the TGI in [10], in experiment [8] and in experiment [9] was above 100 µM throughout.

With `COC(=O)C1=Cc2c(cc(OC)c(OC)c2OC)[C@H](c2ccc(OC)c(OC)c2OC)C1C(=O)OC` (some centres undefined), the TGI in [1], in experiment [2], in experiment [3], in [5], in experiment [6] and in [7] was above 100 µM each time. Further, the TGI in experiment [10], in experiment [8] and in [9] was above 100 µM in each case.

Take `COc1ccc2c(c1)CCCC1C3=NCCC3(C)CSC21` (centres undefined): the TGI in experiment [1], in experiment [2], in experiment [3], in experiment [5], in experiment [6] and in experiment [7] was above 100 µM each time. Besides, the TGI in experiment [10] and in experiment [8] was above 100 µM in each case.

For the compound `CC1CC2(CCC1OCc1ccccc1)OCCO2` (centres undefined), the TGI in experiment [1], in experiment [2], in [3], in experiment [5], in [7] and in experiment [10] was above 100 µM throughout. Besides, the TGI in experiment [8] and in experiment [9] was above 100 µM throughout.

`NC(N)=N/N=C/c1c(-c2ccc(Cl)c([N+](=O)[O-])c2)nc2ccccn12`: the GI50 in experiment [5] is 1.87 µM; in experiment [8] it was 0.122 µM; in [9], 9.18 µM. The TGI in experiment [5] amounted to 3.66 µM; in [8] it was 1.53 µM; in [9], 56.1 µM.

For `O=C(O)c1ccc(C2C3C=CC(C3)C2[N+](=O)[O-])cc1` (centres undefined), the TGI in experiment [2], in experiment [3], in [5], in experiment [6], in [7] and in [10] was above 100 µM each time. The TGI in experiment [8] and in experiment [9] was above 100 µM each time.

With `CCOC(=O)[C@H]1Nc2ccc(Cl)cc2[C@H]2c3ccccc3O[C@H]21`, the TGI in [1], in experiment [2], in experiment [3], in experiment [5], in experiment [6] and in [7] was above 100 µM each time. Moreover, the TGI in experiment [10], in [8] and in [9] was above 100 µM throughout.

Regarding `Cc1cc(C)c2c(N)c3cccc(C)c3nc2n1`, the GI50 in [1] was 2.29 µM; in experiment [2] it was 1.55 µM; in experiment [3], 2.47 µM; in experiment [4], 2.14 µM; in experiment [5] it was 1.61 µM; in experiment [6] it was 3.86 µM. Further, the figures for the GI50 in [7], in [8] and in experiment [9] were 2.21 µM, 1.61 µM and 1.76 µM, respectively. The TGI in experiment [1] was 8.1 µM; in experiment [2] it was 14.8 µM; in experiment [3] it was 10.6 µM; in experiment [4], 10.3 µM; in experiment [5] it was 11.2 µM; in experiment [6] it was 15.9 µM. Also, the TGI in [7] was found to be 8.73 µM; in experiment [8] it was 5.01 µM; in experiment [9] it was 6.5 µM.

For the compound `CCOC(=O)C(=O)Nc1ccc(Cl)c(C(F)(F)F)c1`, the TGI in experiment [1], in [2], in [3], in experiment [5], in [6] and in experiment [7] was above 100 µM each time. The TGI in [10], in [8] and in [9] was above 100 µM in each case.

In the case of `NC(=O)c1c2c(cc3c(=O)c4ccccc4[nH]c13)CCCC2`, the TGI in [1], in experiment [2], in experiment [3], in experiment [5], in experiment [6] and in experiment [7] was above 100 µM each time. In addition, the TGI in [10], in experiment [8] and in experiment [9] was above 100 µM in each case.
